From article PMC6481325, “Novel N,N-dialkyl cyanocinnamic acids as monocarboxylate transporter 1 and 4 inhibitors” (Oncotarget, 2019)
Read-outs that look alike come from different tables or passages of the source. One block for each molecule: values may come before it.

Key:
[1] = test system: MCT1 expressing WiDr cells; experiment: Seahorse XFe96 glycolysis stress test (ECAR), WiDr; type: cell-based; details: 30 μM
Protocol: (§1) In the GST, three parameters namely glycolysis, glycolytic capacity and glycolytic reserve were measured.
(§2) Extracellular acidification rates (ECAR) and oxygen consumption rates (OCR) were recorded in real-time for glycolysis stress test (GST) and mitochondrial stress test (MST), respectively, using Agilent Seahorse XFe96® analyzer.

[2] = test system: MCT4 expressing MDA-MB-231 cells; experiment: Seahorse XFe96 glycolysis stress test (ECAR), MDA-MB-231; type: cell-based; details: 30 μM
Protocol: as §1, §2

[3] = test system: MCT1 expressing WiDr cells; experiment: Seahorse XFe96 mitochondrial stress test (OCR), WiDr; type: cell-based; details: 30 μM
Protocol: as §2

[4] = test system: MCT4 expressing MDA-MB-231 cells; experiment: Seahorse XFe96 mitochondrial stress test (OCR), MDA-MB-231; type: cell-based; details: 30 μM
Protocol: as §2

MCT4 = target: T1, MCT4 (Homo sapiens, UniProt O15427); experiment: L-[14C]-lactate uptake study in MCT4 expressing MDA-MB-231 cells; type: cell-based
T1 construct: These cells predominantly express MCT4 as confirmed by Western blot and quantitative PCR analysis; host or cells: MDA-MB-231
T1 sequence (O15427 2-465 limits assumed): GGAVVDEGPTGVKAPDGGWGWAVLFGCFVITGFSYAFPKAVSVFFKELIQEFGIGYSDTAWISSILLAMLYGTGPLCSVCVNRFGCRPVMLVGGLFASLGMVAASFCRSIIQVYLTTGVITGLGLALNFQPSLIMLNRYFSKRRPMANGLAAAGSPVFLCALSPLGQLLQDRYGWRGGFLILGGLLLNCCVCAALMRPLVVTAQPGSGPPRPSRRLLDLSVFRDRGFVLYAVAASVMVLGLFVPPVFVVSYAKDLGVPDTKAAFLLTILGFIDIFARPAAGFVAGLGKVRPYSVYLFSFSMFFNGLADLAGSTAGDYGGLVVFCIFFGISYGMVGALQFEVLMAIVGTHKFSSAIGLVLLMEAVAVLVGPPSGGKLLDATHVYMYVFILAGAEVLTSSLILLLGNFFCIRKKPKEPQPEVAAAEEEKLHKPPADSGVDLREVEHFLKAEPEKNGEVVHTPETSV
T1 sequence (P35613 140-385 partner limits assumed): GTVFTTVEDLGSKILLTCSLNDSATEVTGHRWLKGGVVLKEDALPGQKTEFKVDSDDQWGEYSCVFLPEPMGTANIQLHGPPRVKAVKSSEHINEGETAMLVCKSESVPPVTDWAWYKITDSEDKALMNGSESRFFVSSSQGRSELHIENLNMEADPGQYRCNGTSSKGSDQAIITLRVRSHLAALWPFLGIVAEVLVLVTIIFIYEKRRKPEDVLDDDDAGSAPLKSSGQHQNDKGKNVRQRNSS
Protocol: In this study, an L-[^14C]-lactate based transport assay was developed by us to quantify MCT4 transport and its inhibition by test compounds. […] For the MCT4 transport assay, the pH of HEPES buffer with L-[^14C]-lactate was adjusted to 7.0 such that lactate influx into the cells was aided by the pH gradient. […] Test compounds were diluted to working concentration in HEPES buffer (140 mM NaCl, 5 mM KCl, 2 mM CaCl2, 2 mM MgCl2, 10 mM HEPES, pH 7.0) containing 3 μM L-[^14C]-lactate (Perkin Elmer) and 2 μM L-lactate. […] HEPES buffer was replaced with 250 μL test solution. After 1 hour, media was replaced with 500 μL ice-cold stop buffer (0.1 mM CHC solution in HBS, pH 7.4) and the plates were placed on ice. Cells were washed twice with ice-cold stop buffer and solubilized using 250 μL of 0.1 M NaOH in 5% Triton-X (Millipore Sigma). A 150 μL aliquot from each well was added to 4 mL EcoLite(+)™ scintillation fluid (MP Biomedicals) and radioactivity was determined by scintillation spectrometry. Inhibition by each test solution was calculated as a percentage of the maximum control uptake. CHC and dimethylsulfoxide (DMSO) were used as controls. […]

MDA-MB-231 cells = experiment: SRB cell proliferation inhibition assay, MDA-MB-231; type: cell-based; details: Homo sapiens, 72 hours, average ± sem
Protocol: (§3) MDA-MB-231 cells (ATCC, 2015) were grown in DMEM supplemented with 10% FBS and penicillin-streptomycin (50 U/ml, 50 μg/ml, Invitrogen). WiDr cells (ATCC, 2017) were cultured in MEM medium supplemented with 10% FBS (Atlanta Biologicals) and penicillin-streptomycin (50 U/ml, 50 μg/ml). For in vitro experiments, after seeding, cells were incubated at 37°C in 5% CO2 for 18–24 hours before the addition of test compounds.
(§4) Cells (5 × 10^4 cells/mL) were cultured in 48-well plates. Test compounds were dissolved in DMSO (final concentration of DMSO is <0.1%) and were added to culture wells at various concentrations in replicate and incubated for 72 hours. Growth medium was removed and the wells were washed with PBS and dried. SRB (0.5% in 1% acetic acid) was added to the wells and incubated for 30–45 minutes. The wells were washed 3 times with 1% acetic acid and dried. The cellular protein was dissolved in trizma base (10 mM, pH 10.2) and absorbance was recorded at 540 nm. Percent survival was calculated using the formula %Survival=Abstest compound/Abscontrol×100 .

WiDr cells = experiment: SRB cell proliferation inhibition assay, WiDr; type: cell-based; details: Homo sapiens, 72 hours, average ± sem
Protocol: as §3, §4

MCT1 = details: RBE4 cells, cited from earlier work
[5] = test system: MDA-MB-231 tumor xenograft; experiment: Tumor growth inhibition, MDA-MB-231 xenograft model; type: in vivo; details: SCID mice
Protocol: Figure 6 In vivo xenograft studies in WiDr and MDA-MB-231 tumor models (A) WiDr tumor xenograft study of compound 3 and compound 9. Mice (n = 8) were treated with 8 mg/kg of compound 3, intraperitoneally, two times a day. (B) Tumor growth inhibition study with compound 9 in MDA-MB-231 tumor xenograft model (n = 6). Mice were treated with compound 9 (70 mg/kg, ip, bid until day-4; qd from day-5), a combination of 9 and doxorubicin (0.5 mg/kg, ip, five days a week), and doxorubicin. (C) Tumor growth inhibition based on isolated tumor mass. ^*P < 0.05, ^**P < 0.01, ^***P < 0.001, ^****P < 0.0001. Schematic representation of (D) untreated tumor cells and (E) inhibition of MCT1 and MCT4 and decreased glycolysis and mitochondrial OxPhos in compound 9 treated tumor cells. Upward hollowed arrow indicates “increase” in function/amount and downward hollowed arrow indicates “decrease” in function/amount.
Group-1 was administered with compound 9, group-2 was given a combination of compound 9 and clinical breast cancer drug doxorubicin (AKSci catalog # E518), and group-3 was treated with doxorubicin alone. Group-4 was assigned as a control group and treated with vehicle (10% DMSO in saline). The treatment was continued up to 18 days and on day 20, the mice were euthanized and tumor masses isolated and weighed. […] Due to these reasons, higher dosages of compound 9 were required to produce significant anticancer efficacy in vivo. In all these studies, <20% of body weight loss was observed.
Tumor cells suspended in 1:1 matrigel-PBS were injected on right flank of female SCID mice (n = 6 mice/group, 10^7 MDA-MB-231 cells) or right flank of female athymic nude mice (n = 8 mice/group, 5 × 10^6 WiDr cells). Tumors were measured using calipers every 2–3 days and tumor volumes were calculated using the formula V = ab^2/2 where ‘a’ is the long diameter of the tumor and ‘b’ is the short diameter of the tumor. Tumor growth inhibition was determined using the formula % inhibition = [(C – T)/C] × 100 where C is average tumor weight of the control group and T is the average tumor weight of the test group.

[6] = Supplementary Table 1, average ± SEM, read-out: MCT4 IC50
[7] = Supplementary Table 1, average ± SEM

SMILES: Cc1[nH]nc(C(F)(F)F)c1Cc1sc2c(c1C(=O)N1C[C@](C)(O)CO1)c(=O)n(C)c(=O)n2C(C)C [AZD3965, reference compound]
glycolytic capacity (GST, ECAR) [1]: decreased | glycolytic reserve (GST, ECAR) [1]: decreased | glycolysis (GST, ECAR) [2]: did not show any glycolysis inhibition | glycolytic capacity (GST, ECAR) [2]: decreased glycolytic capacity only in WiDr | glycolytic reserve (GST, ECAR) [2]: decreased glycolytic reserve only in MCT1 expressing WiDr | ATP production (MST, OCR) [3]: did not affect | maximal respiration (MST, OCR) [3]: did not affect | proton leak (MST, OCR) [3]: did not affect | spare respiratory capacity (MST, OCR) [3]: did not affect | ATP production (MST, OCR) [4]: did not affect | maximal respiration (MST, OCR) [4]: did not affect | proton leak (MST, OCR) [4]: did not affect | spare respiratory capacity (MST, OCR) [4]: did not affect

IC50 (MCT4; Figure 1A and text, lactate uptake, read-out: MCT4 IC50): 28 nM | IC50 (MCT4; [6]): 24 ± 6 nM | IC50 (MDA-MB-231 cells): > 25000 nM
SMILES: C=CCN(CC=C)c1ccc(/C=C(\C#N)C(=O)O)c(OC)c1 [Allyl (2)]
IC50 (WiDr cells): > 25000 nM | IC50 (MCT1; [7]): 29 ± 2 nM

IC50 (MCT4; [6]): 32 ± 3 nM | IC50 (MDA-MB-231 cells): > 25000 nM
SMILES: COc1cc(N(Cc2ccccc2)Cc2ccccc2)ccc1/C=C(\C#N)C(=O)O [Benzyl (8)]
IC50 (WiDr cells): > 25000 nM | IC50 (MCT1; Figure 1A and text, lactate uptake): 37 nM | IC50 (MCT1; [7]): 25 ± 3 nM

IC50 (MCT4; [6]): 14 ± 2 nM | IC50 (MDA-MB-231 cells): > 25000 nM
SMILES: CCCCN(CCCC)c1ccc(/C=C(\C#N)C(=O)O)c(OC)c1 [Butyl (3)]
IC50 (WiDr cells): > 25000 nM | glycolytic capacity (GST, ECAR) [1]: significant decrease | glycolytic reserve (GST, ECAR) [1]: significant decrease | ATP production (MST, OCR) [3]: decreased | maximal respiration (MST, OCR) [3]: decreased | spare respiratory capacity (MST, OCR) [3]: decreased | ATP production (MST, OCR) [4]: decreased | maximal respiration (MST, OCR) [4]: decreased | spare respiratory capacity (MST, OCR) [4]: decreased

SMILES: N#CC(=Cc1ccc(O)cc1)C(=O)O [CHC, α-cyano-4-hydroxy cinnamic acid, reference compound]
IC50 (MCT4; MCT4 IC50, CHC, lactate uptake): ≥ 150000 nM | glycolysis (GST, ECAR) [1]: did not affect | glycolytic capacity (GST, ECAR) [1]: did not affect | glycolytic reserve (GST, ECAR) [1]: decreased | glycolysis (GST, ECAR) [2]: did not affect | glycolytic capacity (GST, ECAR) [2]: did not affect | glycolytic reserve (GST, ECAR) [2]: decreased glycolytic reserve only in MCT1 expressing WiDr | ATP production (MST, OCR) [3]: did not affect | maximal respiration (MST, OCR) [3]: did not affect | proton leak (MST, OCR) [3]: did not affect | spare respiratory capacity (MST, OCR) [3]: did not affect | ATP production (MST, OCR) [4]: did not affect | maximal respiration (MST, OCR) [4]: did not affect | proton leak (MST, OCR) [4]: did not affect | spare respiratory capacity (MST, OCR) [4]: did not affect | IC50 (MCT1; CHC, lactate uptake): ≥ 150000 nM

IC50 (MCT4; [6]): 17 ± 2 nM | IC50 (MDA-MB-231 cells): > 25000 nM
SMILES: COc1cc(N(CC(C)C)CC(C)C)ccc1/C=C(\C#N)C(=O)O [Isobutyl (4)]
IC50 (WiDr cells): > 25000 nM | IC50 (MCT1; [7]): 11 ± 4 nM

IC50 (MCT4; [6]): 85 ± 8 nM | IC50 (MDA-MB-231 cells): > 25000 nM
SMILES: CCCCCN(CCCCC)c1ccc(/C=C(\C#N)C(=O)O)c(OC)c1 [Pentyl (5)]
IC50 (WiDr cells): > 25000 nM | IC50 (MCT1; [7]): 34 ± 7 nM

IC50 (MCT4; [6]): 58 ± 13 nM | IC50 (MDA-MB-231 cells): > 25000 nM
SMILES: COc1cc(N2CCCCC2)ccc1/C=C(\C#N)C(=O)O [Piperidinyl (7)]
IC50 (WiDr cells): > 25000 nM | IC50 (MCT1; [7]): 25 ± 5 nM

IC50 (MCT4; [6]): 11 ± 1 nM | IC50 (MDA-MB-231 cells): > 25000 nM
SMILES: CCCN(CCC)c1ccc(/C=C(\C#N)C(=O)O)c(OC)c1 [Propyl (1)]
IC50 (WiDr cells): > 25000 nM | IC50 (MCT1; [7]): 12 ± 1 nM

IC50 (MDA-MB-231 cells): > 25000 nM
SMILES: COc1cc(N2CCCC2)ccc1/C=C(\C#N)C(=O)O [Pyrrolidinyl (6)]
IC50 (WiDr cells): > 25000 nM

SMILES: COc1cccc2c1C(=O)c1c(O)c3c(c(O)c1C2=O)C[C@@](O)(C(=O)CO)C[C@@H]3O[C@H]1C[C@H](N)[C@H](O)[C@H](C)O1 [doxorubicin, reference compound]
tumor growth inhibition based on tumor volume ([5]; 9 70 mg/kg ip bid until day-4, qd from day-5, doxorubicin 0.5 mg/kg ip five days a week, treatment up to 18 days): 48% | tumor growth inhibition based on isolated tumor weights ([5]; same regimens, tumors isolated on day 20): 52%
